Values quoted from earlier work as cited in patent US20100105640A1, “Aromatase Inhibitors for Emergency Contraception” (priority 2005, published 2010).

Conditions: Yuzpe n = 979, Levonorgestrel n = 977

Percent with symptom (95% confidence interval): Breast tenderness: 10.8% | Percent with symptom (95% confidence interval): Dizziness: 11.2% | Percent with symptom (95% confidence interval): Fatigue: 16.9% | Percent with symptom (95% confidence interval): Headache: 16.8% | Percent with symptom (95% confidence interval): Low abdominal pain: 17.6% | Percent with symptom (95% confidence interval): Nausea: 23.1% | Percent with symptom (95% confidence interval): Vomiting: 5.6%
Compound: C#C[C@]1(O)CC[C@H]2[C@@H]3CCC4=CC(=O)CC[C@@H]4[C@H]3CC[C@@]21CC [Levonorgestrel, levonorgestrel]
Percent with symptom (95% confidence interval): All other adverse effects (mostly diarrhea and some irregular bleeding or spotting): 13.5%
